The results in this text go back to ChEMBL document CHEMBL1201862, “PubChem BioAssay data set” (2004).

Some test systems named below: A549; ACHN; BT-549; DU-145; EKVX; HCC 2998; HCT-15; HOP-62; HOP-92; HT-29; IGROV-1; KM12; MDA-MB-435; NCI-H23; OVCAR-4; SK-MEL-5; SK-OV-3; SNB-75; T47D; TK-10.
Assay in all cases: DTP human tumour cell line panel, 48 h

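Each compound was tested at five concentrations against cells in 96-well plates for 48 hours. GI50 is the concentration that inhibits growth by half.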 The source made the active and inactive calls. Cut-off read from the data, not from the text of the source: active = GI50 up to about 1.1 µM and inactive = higher. Where a SMILES comes first, the peptide text is derived from it. The star is where a group is joined. Fmoc = O=C(OCC1c2ccccc2-c2ccccc21)*; OBn = c1ccc(CO*)cc1; tBu = CC(C)(C)*

Turning to `CC[C@@H]1CC[C@@H]2[C@H](CC[C@]3(C)[C@@H](OC(C)=O)CC[C@@H]23)[C@H]1C(=O)OC`, the GI50 in the test with A549 is 24.4 µM (inactive); with ACHN, 40 µM (inactive); with BT-549, 34.4 µM (inactive); in the test with DU-145, 27.4 µM (inactive); with EKVX, 25.2 µM (inactive); with HCC 2998 it was 97.9 µM (inactive). For the same molecule, the GI50 in the test on HCT-15 is 22 µM; in the test on HOP-62, 24.9 µM (inactive); in the test with HOP-92, 13.4 µM (inactive); in the test with HT-29, 25 µM (inactive); in the test with IGROV-1 it was 24.8 µM (inactive); with KM12, 22.5 µM (inactive). Besides, the GI50 in the test on MDA-MB-435 was 20.9 µM (inactive); with NCI-H23, 24.4 µM (inactive); in the test with OVCAR-4, 19.9 µM (inactive); in the test with SK-MEL-5, 14.6 µM (inactive); in the test on SK-OV-3, > 100 µM (inactive); in the test with SNB-75, 22.3 µM (inactive). In addition, the GI50 with T47D was 21.8 µM (inactive); with TK-10 it was > 100 µM (inactive).

Take `CC(OC(C)(C)C)C(NC(=O)OCC1c2ccccc2-c2ccccc21)C(=O)NC(Cc1ccccc1)C(=O)OCc1ccccc1` (stereo not given) (Fmoc-Thr(tBu)-Phe-OBn; configuration not given here): the GI50 with A549, in the test on ACHN, in the test with BT-549, in the test with DU-145, in the test on EKVX and in the test with HCC 2998 was > 100 µM (inactive) each time. Further, the GI50 in the test with HCT-15 is more than 100 µM; in the test on HOP-62, > 93.8 µM (inactive); with HOP-92, > 21.2 µM (inactive); with HT-29 it was > 100 µM (inactive); in the test on IGROV-1 it was > 100 µM (inactive); with KM12, > 100 µM (inactive). Besides, the GI50 with MDA-MB-435, in the test on NCI-H23, in the test on OVCAR-4, in the test on SK-MEL-5, with SK-OV-3 and with SNB-75 was > 100 µM (inactive) in each case. In addition, the GI50 in the test on T47D was > 76.7 µM (inactive); in the test with TK-10 it was > 100 µM (inactive).

By GI50 is commonly meant the concentration that inhibits growth by half.
